# According to patent US6780876B2, “Composition for keeping away vermin” (Novartis Animal Health US, Inc., priority 1998, dated 2004):
# What was measured:
# [1] = system: Rhipicephalus Sanguineus (nymphs); assay: Arena test in vitro against Rhipicephalus sanguineus (nymphs); type: in vivo; conditions: even up to a dilution of 10 μg/cm^2
# Procedure: (§1) This method is carried out in titre plates having 6 wells with a cross-section of 5 cm each, using a computer-supported video system. Each well of the titre plate is lined with a circular filter paper or another suitable carrier material. The substance of formula I to be tested is dissolved in methanol, acetonitrile or another suitable solvent, with ultrasound treatment and heating being employed for poorly-soluble substances. In an amount of 1 to 100 μg/cm^2, the dissolved test substance is placed in the centre of the filter paper on a quadrant or circular area of ca. 2.4 cm^2 radius. 4 of the 6 wells are filled with different test substances or with the same test substance in different dilutions (e.g. 1, 3.2, 5, 10 and 20 μg/cm^2). The 5th well is treated with DEET (N,N-diethyl-m-toluamide) as standard substance. The 6th well is filled with the pure solvent and serves as a control. 60 to 100 larvae or 25 to 50 nymphs or 10 to 25 adults of the parasite to be tested, e.g. ticks, are added to each filter paper, and the system is covered with a pane of glass and positioned under a video camera. At intervals of 5 seconds, the video camera takes individual pictures of all 6 wells. […] 6 or with the standard in the 5th well. […] In this way, neutral and deterring substances are determined. At the same time, the duration of activity of the test substance is determined and compared with that of the standard. By plotting all the images for each individual well over one another, different areas of density are obtained. This represents the frequency at which the parasites visit certain places. This frequency is evaluated statistically and thus quantitatively by the Willcoxon method in a comparison with the control and with the standard.
# Arena Test in vitro Against Rhipicephalus Sanguineus (nymphs)
# A test is carried out analogously to example B using ca. 40 to 50 nymphs.
# ticks = assay: Arena test method for testing vermin-deterring substances; type: in vivo; conditions: 1 to 100 μg/cm^2 on filter paper; video evaluation against solvent control and DEET standard
# Procedure: Arena Test Method for Testing Vermin-deterring Substances
# (§2) This method is carried out in titre plates having 6 wells with a cross-section of 5 cm each, using a computer-supported video system. Each well of the titre plate is lined with a circular filter paper or another suitable carrier material. The substance of formula I to be tested is dissolved in methanol, acetonitrile or another suitable solvent, with ultrasound treatment and heating being employed for poorly-soluble substances. In an amount of 1 to 100 μg/cm^2, the dissolved test substance is placed in the centre of the filter paper on a quadrant or circular area of ca. 2.4 cm^2 radius. 4 of the 6 wells are filled with different test substances or with the same test substance in different dilutions (e.g. 1, 3.2, 5, 10 and 20 μg/cm^2). The 5th well is treated with DEET (N,N-diethyl-m-toluamide) as standard substance. The 6th well is filled with the pure solvent and serves as a control. 60 to 100 larvae or 25 to 50 nymphs or 10 to 25 adults of the parasite to be tested, e.g. ticks, are added to each filter paper, and the system is covered with a pane of glass and positioned under a video camera. At intervals of 5 seconds, the video camera takes individual pictures of all 6 wells. For a qualitative evaluation, these images are observed in a time-lapse as a continuous film, optically following the movements of the parasites on the filter paper and comparing them with the movements in the control well no. 6 or with the standard in the 5th well. A qualitative observation is thus made as to whether the test parasites move evenly over the whole surface of the filter paper and ignore the test substance, or whether and over what period they avoid the treated zone, and what influence the dilution of the test substance has on the behaviour of the test parasites. In this way, neutral and deterring substances are determined. At the same time, the duration of activity of the test substance is determined and compared with that of the standard. By plotting all the images for each individual well over one another, different areas of density are obtained. This represents the frequency at which the parasites visit certain places. This frequency is evaluated statistically and thus quantitatively by the Willcoxon method in a comparison with the control and with the standard. Compounds of Table 1, for example nos.
# [2] = system: Boophilus Microplus Biarra (larvae); assay: Arena test in vitro against Boophilus microplus Biarra (larvae); type: in vivo; conditions: even up to a dilution of 10 μg/cm^2
# Procedure: as §1
# Arena Test in vitro Against Boophilus Microplus Biarra (larvae)
# The test is carried out as described above, with ca. 60 to 100 larvae being added per well. 10 mg of dissolved test substance is applied to an area of 2.4 cm^2 radius.
# [3] = system: Amblyomma Hebraeum or Variegatum (nymphs); assay: Arena test in vitro against Amblyomma hebraeum or variegatum (nymphs); type: in vivo; conditions: even up to a dilution of 3.2 μg/cm^2
# Procedure: as §2
# Arena Test in vitro Against Amblyomma Hebraeum or Variegatum (nymphs)
# The test is carried out as described above, with ca. 25 to 50 nymphs being added per well. 10 mg of dissolved test substance is applied to an area of 2.4 cm^2 radius. […] 1.26 to 1.36, 1.40, 1.45, 1.47, 1.95, 1.96, 1.97, 1.137, and 1.139, even up to a dilution of 3.2 μg/cm^2.
# [4] = system: certain plant damaging insects; conditions: cited from earlier work
Structure (SMILES),long-term deterring activity [1],vermin-deterring activity in the arena test (ticks),long-term deterring activity [2],long-term deterrent activity [3],activity as a deterrent [4]
"CC(C)c1ccc(C(O)C2CCCCN2C)cc1 (stereo not drawn) [Compound 1.96, N-methyl-2-[(1-[4-isopropylphenyl])(1-hydroxy)methyl]-piperidine]",Particularly marked long-term activity,excellent activity,Particularly marked long-term activity,Particularly marked long-term activity,–
"OC(c1ccccc1)C1CCCCN1 (stereo not drawn) [Compound 1.44, 2-[(1-phenyl)(1-hydroxy)methyl]piperidine]",–,excellent activity,–,–,–
"CCCCCCCCCCC(O)C1CCCCN1C(C)=O (stereo not drawn) [Compound 1.140, N-acetyl-2-[(1-hydroxy)(1-undecyl)]piperidine]",–,–,Particularly marked long-term activity,–,–
"Cc1ccc(C(O)C2CCCCN2C)cc1 (stereo not drawn) [Compound 1.87, N-methyl-2-[(1-[4-methylphenyl])-(1-hydroxy)methyl]piperidine]",–,excellent activity,–,–,–
OC(c1ccccc1)(c1ccc2c(c1)CCO2)C1CCCCN1 (stereo not drawn) [Compound 1.59],Particularly marked long-term activity,excellent activity,–,–,–
"Cc1ccc(C(O)C2CCCCN2)cc1 (stereo not drawn) [Compound 1.89, 2-[(1-[4-methylphenyl])(1-hydroxy)methyl]piperidine]",–,excellent activity,–,–,–
OC[C@H]1NC[C@H](O)[C@@H](O)[C@@H]1O [deoxynojirimicin],–,–,–,–,slight activity
"COc1ccc(C(O)C2CCCCN2)cc1 (stereo not drawn) [Compound 1.97, 2-[(1-[4-methoxyphenyl])(1-hydroxy)methyl]piperidine]",–,excellent activity,Particularly marked long-term activity,Particularly marked long-term activity,–
"CC1(C)CCCC(C(O)c2ccc(Cl)cc2)N1 (stereo not drawn) [Compound 1.101, 6,6-dimethyl-2-[(1-[4-chlorphenyl])(1-hydroxy)methyl]piperidine]",–,excellent activity,–,–,–
"CCCCCCCCCCCCCCC(O)C1CCCCN1 (stereo not drawn) [Compound 1.32, 2-[n-(1-hydroxypentade-cyl)]piperidine]",Particularly marked long-term activity,–,–,–,–
"CCCCCCCCCCCCCCCCC(O)C1CCCCN1 (stereo not drawn) [Compound 1.34, 2-[n-(1-hydroxyheptadecyl)]piperidine]",Particularly marked long-term activity,–,–,–,–
"OC(c1ccccc1)C1CCCCN1 (stereo not drawn) [Compound 1.40, 2-[(1-phenyl)(1-hydroxy)methyl]piperidine]",Particularly marked long-term activity,–,Particularly marked long-term activity,Particularly marked long-term activity,–
"CCCCCCCCCCC(O)C1CCCCN1C(=O)OCC (stereo not drawn) [Compound 1.141, N -ethoxycarbonyl--2-[(1-hydroxy)(1-undecycl)]piperidine]",–,–,Particularly marked long-term activity,–,–
"CCCCCCCCCCC(O)C1CCCCN1 (stereo not drawn) [Compound 1.27, 2-[n-(1-hydroxyundecyl)]piperidine]",Particularly marked long-term activity,–,–,–,–
OC(COCc1ccccc1)C1CCCCN1 (stereo not drawn) [Compound 1.137],Particularly marked long-term activity,excellent activity,Particularly marked long-term activity,Particularly marked long-term activity,–
"CC(C)c1ccc(C(O)C2CCCCN2)cc1 (stereo not drawn) [Compound 1.95, 2-[(1-[4-isopropyl-phenyl])(1-hydroxy)methyl]piperidine]",–,excellent activity,Particularly marked long-term activity,Particularly marked long-term activity,–
"CN1CCCCC1C(O)c1ccccc1 (stereo not drawn) [Compound 1.45, N-me-thyl-2-[(1-phenyl)(1-hydroxy)methyl]piperidine]",Particularly marked long-term activity,excellent activity,Particularly marked long-term activity,Particularly marked long-term activity,–
"CC1(C)CCCC(C(O)c2ccc(Cl)cc2)N1 (stereo not drawn) [Compound 1.139, 6,6-dimethyl-2-[(1-[4-chlorphenyl])(1-hydroxy)methyl]piperidine]",Particularly marked long-term activity,excellent activity,Particularly marked long-term activity,Particularly marked long-term activity,–
"CCCCCCCCCCCCC(O)C1CCCCN1 (stereo not drawn) [Compound 1.29, 2-[n-(1-hydroxytridecyl)]piperidine]",Particularly marked long-term activity,–,–,–,–
"CCCCCCCCCCCCCCCCCCC(O)C1CCCCN1 (stereo not drawn) [Compound 1.36, 2-[n-(1-hydroxynonadecyl)]piperidine]",Particularly marked long-term activity,–,–,–,–
